Assay results as given in patent US10285982B2, “3-(1H-pyrrolo[2,3-B]pyridin-2-yl)-1H-pyrazolo[3,4-C]pyridines and therapeutic uses thereof” (Samumed, LLC, priority 2015, dated 2019).
Blank lines part the entries; values can stand above or below the compound they belong to.

Assays:
[1] = system: Wnt activity (Sp5-Luc reporter, SW480 colon carcinoma cells); assay: Wnt activity screening assay, Sp5-Luc reporter gene in SW480 cells; format: cell-based; conditions: Homo sapiens; for inhibition at 10 µM: given where EC50 >10 μM, read-out: percent inhibition at 10 μM; for EC50: overnight incubation
How it was run: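 First, hygromycin-selected SW480 Sp5-Luc reporter cells are seeded in medium with 1% fetal bovine serum and exposed overnight to compound (up to 10 μM, 0.1% DMSO). Next, luciferase signal is read by luminescence. Finally, EC50 is fitted, or percent inhibition at 10 μM is reported above 10 μM.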

IL-6 (THP-1 cells) = assay: IL-6 inhibition in LPS-stimulated THP-1 cells (HTRF); format: cell-based; conditions: Homo sapiens; for EC50: IL-6 in THP-1 cells, LPS 500 ng/mL, 22 hours; for inhibition at 10 µM: given where EC50 >10 μM, IL-6, THP-1 cells, LPS, read-out: percent inhibition at 10 μM
How it was run: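 Readout is the 665/620 nm HTRF ratio for secreted IL-6, normalized to DMSO wells, with EC50 from a variable-slope four-parameter fit, or % inhibition at 10 μM when above 10 μM. Cells (1% FBS, 24 h beforehand) got compound for 2 h, then LPS 500 ng/mL for 22 h at 37° C; top dose 10 μM, 0.1% DMSO.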

EC50 [1]: > 10 µM | EC50 (IL-6 (THP-1 cells)): > 10 µM
SMILES: O=C(Nc1cncc(-c2cc3c(-c4cc5c(-c6ccncc6)ccnc5[nH]4)n[nH]c3cn2)c1)C1CCCCC1 [Compound 135, N-(5-(3-(4-(Pyridin-4-yl)-1H-pyrrolo[2,3-b]pyridin-2-yl)-1H-pyrazolo[3,4-c]pyridin-5-yl)pyridin-3-yl)cyclohexanecarboxamide]
inhibition at 10 µM [1]: 13% | inhibition at 10 µM (IL-6 (THP-1 cells)): 17.8%

EC50 [1]: > 10 µM | EC50 (IL-6 (THP-1 cells)): > 10 µM
SMILES: Nc1cncc(-c2cc3c(-c4cc5c(-c6ccccc6F)ccnc5[nH]4)n[nH]c3cn2)c1 [Compound 59, 5-(3-(4-(2-Fluorophenyl)-1H-pyrrolo[2,3-b]pyridin-2-yl)-1H-pyrazolo[3,4-c]pyridin-5-yl)pyridin-3-amine]
inhibition at 10 µM [1]: 14.3% | inhibition at 10 µM (IL-6 (THP-1 cells)): 37.3%

EC50 [1]: > 10 µM | EC50 (IL-6 (THP-1 cells)): > 10 µM
SMILES: CC(C)(C)C(=O)Nc1cncc(-c2cc3c(-c4cc5c(-c6cccnc6)ccnc5[nH]4)n[nH]c3cn2)c1 [Compound 92, N-(5-(3-(4-(Pyridin-3-yl)-1H-pyrrolo[2,3-b]pyridin-2-yl)-1H-pyrazolo[3,4-c]pyridin-5-yl)pyridin-3-yl)pivalamide]
inhibition at 10 µM [1]: 3.4% | inhibition at 10 µM (IL-6 (THP-1 cells)): 23.3%

EC50 [1]: > 10 µM | EC50 (IL-6 (THP-1 cells)): > 10 µM
SMILES: Fc1cccc(-c2ccnc3[nH]c(-c4n[nH]c5cnc(-c6cncc(CN7CCCC7)c6)cc45)cc23)c1 [Compound 14, 3-(4-(3-Fluorophenyl)-1H-pyrrolo[2,3-b]pyridin-2-yl)-5-(5-(pyrrolidin-1-ylmethyl)pyridin-3-yl)-1H-pyrazolo[3,4-c]pyridine]
inhibition at 10 µM [1]: 22.8% | inhibition at 10 µM (IL-6 (THP-1 cells)): 21.6%

EC50 [1]: > 10 µM | EC50 (IL-6 (THP-1 cells)): > 10 µM
SMILES: CN1CCN(c2ccnc3[nH]c(-c4n[nH]c5cnc(-c6cn[nH]c6)cc45)cc23)CC1 [Compound 635, 3-(4-(4-Methylpiperazin-1-yl)-1H-pyrrolo[2,3-b]pyridin-2-yl)-5-(1H-pyrazol-4-yl)-1H-pyrazolo[3,4-c]pyridine]
inhibition at 10 µM [1]: 25.4% | inhibition at 10 µM (IL-6 (THP-1 cells)): 10.9%

EC50 [1]: > 10 µM | EC50 (IL-6 (THP-1 cells)): > 10 µM
SMILES: CN(C)CCNc1cc(F)cc(-c2ccnc3[nH]c(-c4n[nH]c5cnc(-c6ccncc6)cc45)cc23)c1 [Compound 466, N^1-(3-Fluoro-5-(2-(5-(pyridin-4-yl)-1H-pyrazolo[3,4-c]pyridin-3-yl)-1H-pyrrolo[2,3-b]pyridin-4-yl)phenyl)-N^2,N^2-dimethylethane-1,2-diamine]
inhibition at 10 µM [1]: 16.5% | inhibition at 10 µM (IL-6 (THP-1 cells)): 5.9%

More lines, now with the values behind:

SMILES: FC1(F)CCN(Cc2cncc(-c3cc4c(-c5cc6cccnc6[nH]5)n[nH]c4cn3)c2)C1 [Compound 278, 5-(5-((3,3-Difluoropyrrolidin-1-yl)methyl)pyridin-3-yl)-3-(1H-pyrrolo[2,3-b]pyridin-2-yl)-1H-pyrazolo[3,4-c]pyridine]
EC50 [1]: 1.35 µM | EC50 (IL-6 (THP-1 cells)): 0.029 µM

SMILES: CC(C)(C)C(=O)Nc1cncc(-c2cc3c(-c4cc5c(-c6cccc(F)c6)ccnc5[nH]4)n[nH]c3cn2)c1 [Compound 8, N-(5-(3-(4-(3-Fluorophenyl)-1H-pyrrolo[2,3-b]pyridin-2-yl)-1H-pyrazolo [3,4-c]pyridin-5-yl)pyridin-3-yl)pivalamide]
EC50 [1]: 0.073 µM | EC50 (IL-6 (THP-1 cells)): > 10 µM | inhibition at 10 µM (IL-6 (THP-1 cells)): 45.4%

SMILES: c1cc(N2CCCCC2)c2cc(-c3n[nH]c4cnc(C5CCNCC5)cc34)[nH]c2n1 [Compound 601, 3-(4-(Piperidin-1-yl)-1H-pyrrolo[2,3-b]pyridin-2-yl)-5-(piperidin-4-yl)-1H-pyrazolo[3,4-c]pyridine]
inhibition at 10 µM [1]: 0% | EC50 [1]: > 10 µM | EC50 (IL-6 (THP-1 cells)): > 10 µM | inhibition at 10 µM (IL-6 (THP-1 cells)): 3%

SMILES: O=C(Nc1cncc(-c2cc3c(-c4cc5c(N6CCCCC6)ccnc5[nH]4)n[nH]c3cn2)c1)C1CC1 [Compound 188, N-(5-(3-(4-(Piperidin-1-yl)-1H-pyrrolo[2,3-b]pyridin-2-yl)-1H-pyrazolo[3,4-c]pyridin-5-yl)pyridin-3-yl)cyclopropanecarboxamide]
EC50 [1]: 1.23 µM | EC50 (IL-6 (THP-1 cells)): > 10 µM | inhibition at 10 µM (IL-6 (THP-1 cells)): 16.2%

SMILES: CCNCc1cncc(-c2cc3c(-c4cc5c(-c6cccnc6)ccnc5[nH]4)n[nH]c3cn2)c1 [Compound 90, N-((5-(3-(4-(Pyridin-3-yl)-1H-pyrrolo[2,3-b]pyridin-2-yl)-1H-pyrazolo[3,4-c]pyridin-5-yl)pyridin-3-yl)methyl)ethanamine]
EC50 [1]: 3.2 µM | EC50 (IL-6 (THP-1 cells)): > 10 µM | inhibition at 10 µM (IL-6 (THP-1 cells)): 33.9%

SMILES: O=C(Nc1cncc(-c2cc3c(-c4cc5c(-c6ccccc6F)ccnc5[nH]4)n[nH]c3cn2)c1)C1CCCCC1 [Compound 79, N-(5-(3-(4-(2-Fluorophenyl)-1H-pyrrolo[2,3-b]pyridin-2-yl)-1H-pyrazolo [3,4-c]pyridin-5-yl)pyridin-3-yl)cyclohexanecarboxamide]
EC50 [1]: 0.359 µM | EC50 (IL-6 (THP-1 cells)): > 10 µM | inhibition at 10 µM (IL-6 (THP-1 cells)): 5.9%
